Data from patent US20160324738A1, “Oral Compositions Containing Stannous” (The Procter & Gamble Company, priority 2015, published 2016).

Experiment: In-vitro pH cycling study of enamel fluoride uptake (enamel fluoridation)
Set-up: species or system human
Details: both salts at levels providing 1100 ppm of fluoride ion; versus sodium fluoride
Procedure: An in-vitro pH cycling study was conducted to evaluate the effect of excess metals and its modulation on fluoride uptake in pre-demineralized human enamel specimens.

**Q.** Which enamel fluoridation does the source give for `[F][Sn][F]` [stannous fluoride] here?
**A.** The enamel fluoridation was “less than what is typically seen with sodium fluoride”.
